Data reported in ChEMBL document CHEMBL1122614, “Antiinflammatory activity of N-(2-benzoylphenyl)alanine derivatives” (J Med Chem, 1984).
“And” between values parts separate entries of the source, which are not always exact repeats. Equal values may be shown once. The source made the active and inactive calls. The rule behind the calls is not given here.

Columns and labels:
Rattus norvegicus [1] = assay: Percentage change in volume of pleural fluid in the 5-h Evans Blue-Carrageenan pleural assay for the compound at dose 100 mg/kg; format: functional
Rattus norvegicus [2] = assay: Percentage change in volume of pleural fluid in the 5-h Evans Blue-Carrageenan pleural assay for Indomethacin at dose 4.0 mg/kg; format: functional
Rattus norvegicus [3] = assay: Oral antiinflammatory activity, measured in rats at the dose of 316 mg/kg; format: functional
Rattus norvegicus [4] = assay: Percentage change in volume of pleural fluid in the 5-h Evans Blue-Carrageenan pleural assay for the compound at dose 4 mg/kg; format: functional
Rattus norvegicus [5] = assay: Percentage change in volume of pleural fluid in the 5-h Evans Blue-Carrageenan pleural assay for Indomethacin 4.0 mg/kg; format: functional
Rattus norvegicus [6] = assay: Percentage change in volume of pleural fluid in the 5-h Evans Blue-Carrageenan pleural assay for the compound at (100 mg/kg); format: functional
Rattus norvegicus [7] = assay: Percentage change in volume of pleural fluid in the 5-h Evans Blue-Carrageenan pleural assay for the compound at dose 20 mg/kg; format: functional
Cyclooxygenase = target: T1, Cyclooxygenase (Bos taurus, UniProt O62664+O62698)
T1 sequence (O62664 whole entry): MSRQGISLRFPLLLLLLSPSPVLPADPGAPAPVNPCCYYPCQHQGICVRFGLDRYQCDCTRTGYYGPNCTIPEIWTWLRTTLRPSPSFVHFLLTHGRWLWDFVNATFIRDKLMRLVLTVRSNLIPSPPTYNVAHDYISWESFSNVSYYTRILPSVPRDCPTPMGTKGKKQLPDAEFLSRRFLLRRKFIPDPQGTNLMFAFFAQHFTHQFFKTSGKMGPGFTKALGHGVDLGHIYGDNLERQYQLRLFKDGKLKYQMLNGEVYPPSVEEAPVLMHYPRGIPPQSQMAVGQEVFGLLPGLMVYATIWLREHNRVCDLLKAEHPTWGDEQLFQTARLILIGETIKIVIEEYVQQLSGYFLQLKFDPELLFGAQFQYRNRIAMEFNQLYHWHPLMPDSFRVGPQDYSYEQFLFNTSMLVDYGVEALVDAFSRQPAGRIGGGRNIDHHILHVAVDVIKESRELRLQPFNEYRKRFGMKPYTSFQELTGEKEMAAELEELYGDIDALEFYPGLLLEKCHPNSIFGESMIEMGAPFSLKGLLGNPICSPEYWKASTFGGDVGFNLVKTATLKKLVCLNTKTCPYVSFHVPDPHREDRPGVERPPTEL
T1 sequence (O62698 whole entry): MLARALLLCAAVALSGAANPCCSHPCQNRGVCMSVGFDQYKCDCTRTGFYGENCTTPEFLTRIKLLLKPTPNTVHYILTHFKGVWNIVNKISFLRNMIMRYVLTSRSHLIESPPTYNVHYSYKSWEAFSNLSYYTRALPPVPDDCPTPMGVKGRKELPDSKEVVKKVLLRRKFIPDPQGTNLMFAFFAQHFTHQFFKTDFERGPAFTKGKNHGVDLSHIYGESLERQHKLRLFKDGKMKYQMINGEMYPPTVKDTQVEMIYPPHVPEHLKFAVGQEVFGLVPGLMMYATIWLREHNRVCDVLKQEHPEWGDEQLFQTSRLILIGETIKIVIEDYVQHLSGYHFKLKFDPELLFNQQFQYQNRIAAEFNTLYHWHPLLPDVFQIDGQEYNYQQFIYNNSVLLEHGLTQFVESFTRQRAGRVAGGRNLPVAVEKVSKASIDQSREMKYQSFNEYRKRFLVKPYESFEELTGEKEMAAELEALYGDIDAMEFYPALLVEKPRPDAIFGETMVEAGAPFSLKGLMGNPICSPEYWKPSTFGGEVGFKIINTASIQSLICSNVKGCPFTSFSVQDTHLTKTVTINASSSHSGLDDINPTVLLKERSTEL
Description: Inhibition of PG synthetase activity obtained from bovine seminal vesicles

Rattus norvegicus [8] = assay: Percentage change in volume of pleural fluid in the 5h- Evans Blue-Carrageenan pleural assay for the compound at dose 80 mg/kg; format: functional
Rattus norvegicus [9] = species: Rattus norvegicus; assay: Percentage change in volume of pleural fluid in the 5-h Evans Blue-Carrageenan pleural assay for the compound; format: functional
Rattus norvegicus [10] = assay: Percentage change in volume of pleural fluid in the 5-h Evans Blue-Carrageenan pleural assay for the compound at dose 80 m/kg; format: functional
Rattus norvegicus [11] = assay: Percentage change in volume of pleural fluid in the 5-h Evans Blue-Carrageenan pleural assay for the compound at dose 20 m/kg; format: functional
Rattus norvegicus [12] = assay: Percentage change in volume of pleural fluid in the 5-h Evans Blue-Carrageenan pleural assay for the compound at dose 100 m/kg; format: functional
Rattus norvegicus [13] = assay: Relative Oral Anti inflammatory activity in the 5-h Evans Blue-Carrageenan pleural assay using indomethacin as reference compound; IA = inactive at 316 mg/kg; format: functional, organism-based; set-up: dose 316 mg/kg

Cc1ccc(NC(C)C(=O)O)c(C(=O)c2ccccc2)c1 (configuration not stated)
Change (Rattus norvegicus [1]): -15% | Change (Rattus norvegicus [2]): -31% | Efficacy ratio (Rattus norvegicus [3]): 1.52

CC(Nc1ccccc1C(=O)c1ccc(Br)cc1)C(=O)O (configuration not stated)
Change (Rattus norvegicus [1]): -29% | Change (Rattus norvegicus [4]): -3% | Efficacy ratio (Rattus norvegicus [3]; 316 mg/kg): 1.43 and 1.46 | Change (Rattus norvegicus [5]): -25%

CC(CNc1ccccc1C(=O)c1ccccc1)C(=O)O.Cl (configuration not stated)
Efficacy ratio (Rattus norvegicus [3]; 316 mg/kg): 0.97 and 1.4

CC(Nc1ccc(C(=O)c2ccccc2)cc1)C(=O)O (configuration not stated)
Change (Rattus norvegicus [6]): -4% | Efficacy ratio (Rattus norvegicus [3]; 316 mg/kg): 1.37 and 1.91 | Change (Rattus norvegicus [5]): -31%

CC(Nc1ccccc1C(=O)c1ccc(Cl)cc1)C(=O)O (configuration not stated)
Change (Rattus norvegicus [7]): -5% | IC50 (Cyclooxygenase): 60 µM | Efficacy ratio (Rattus norvegicus [3]; 316 mg/kg): 1.62 and 1.42 | Change (Rattus norvegicus [8]): -33% | Change (Rattus norvegicus [5]): -30%

CC(Nc1ccccc1C(=O)c1ccc(Cl)cc1Cl)C(=O)O (configuration not stated)
Change (Rattus norvegicus [1]): -34% | Change (Rattus norvegicus [4]): -3% | Efficacy ratio (Rattus norvegicus [3]; 316 mg/kg): 1.44 and 1.52 | Change (Rattus norvegicus [5]): -32%

Cc1c(NCC(=O)O)cccc1C(=O)c1ccc(Cl)cc1
IC50 (Cyclooxygenase): > 1000 µM

CC(Nc1ccc(Cl)cc1C(=O)c1ccc(Br)cc1)C(=O)O (configuration not stated)
Efficacy ratio (Rattus norvegicus [3]; 316 mg/kg): 1.1 and 1.57

COc1ccc(NC(C)C(=O)O)c(C(=O)c2ccccc2)c1 (configuration not stated)
Efficacy ratio (Rattus norvegicus [3]; 316 mg/kg): 1.06 and 1.52

CN(CC(=O)O)c1ccccc1C(=O)c1ccccc1.Cl
Change (Rattus norvegicus [9]): -13% | Change (Rattus norvegicus [5]): -38%

CC(Nc1cccc(C(=O)c2ccccc2)c1)C(=O)O.Cl (configuration not stated)
Change (Rattus norvegicus [6]): -15% | Efficacy ratio (Rattus norvegicus [3]; 316 mg/kg): 1.38 and 1.4 | Change (Rattus norvegicus [5]): -32%

Cc1ccc(C(=O)c2ccccc2NC(C)C(=O)O)cc1 (configuration not stated)
Change (Rattus norvegicus [1]): -21% | Change (Rattus norvegicus [4]): -8% | Efficacy ratio (Rattus norvegicus [3]; 316 mg/kg): 1.39 and 1.52 | Change (Rattus norvegicus [5]): -35%

Cc1ccc(C(=O)c2ccccc2)c(NC(C)C(=O)O)c1 (configuration not stated)
Change (Rattus norvegicus [7]): -19% | Efficacy ratio (Rattus norvegicus [3]; 316 mg/kg): 1.88 and 1.46 | Change (Rattus norvegicus [5]): -28%

CC(Nc1ccccc1C(=O)c1ccccc1)C(=O)O (configuration not stated)
Change (Rattus norvegicus [10]): -32% | Change (Rattus norvegicus [2]; 4 mg/kg): -20% and -30% | Efficacy ratio (Rattus norvegicus [3]; 316 mg/kg): 1.6 and 1.66 | Change (Rattus norvegicus [11]): 4% | Change (Rattus norvegicus [12]): -28%

Cc1ccc2c(-c3ccccc3)nc(=O)n(C(C)C)c2c1 [PROQUAZONE]
IC50 (Cyclooxygenase): 0.07 µM

CC(Nc1ccccc1Oc1ccccc1)C(=O)O (configuration not stated)
Efficacy ratio (Rattus norvegicus [3]; 316 mg/kg): 1.18 and 1.52

COc1ccc(C(=O)c2ccccc2NC(C)C(=O)O)cc1 (configuration not stated)
Change (Rattus norvegicus [1]): -22% | Change (Rattus norvegicus [4]): -9% | Efficacy ratio (Rattus norvegicus [3]; 316 mg/kg): 1.8 and 1.94 | Change (Rattus norvegicus [5]): -35%

CC(Oc1ccccc1C(=O)c1ccccc1)C(=O)O (configuration not stated)
Efficacy ratio (Rattus norvegicus [3]; 316 mg/kg): 0.98 and 1.65

CC(C)Nc1ccccc1C(=O)c1ccccc1.Cl
Efficacy ratio (Rattus norvegicus [3]; 316 mg/kg): 1.13 and 1.46

Cc1ccc2c(-c3ccccc3)nc(=O)n(C(C)C(=O)O)c2c1 (configuration not stated)
Relative potency (Rattus norvegicus [13]): inactive | IC50 (Cyclooxygenase): 300 µM

O=C(O)CNc1ccccc1C(=O)c1ccccc1
Efficacy ratio (Rattus norvegicus [3]; 316 mg/kg): 0.98 and 1.47

CC(Nc1ccc(Cl)cc1C(=O)c1ccccc1)C(=O)O (configuration not stated)
Change (Rattus norvegicus [1]; 100 mg/kg): -28% and -18% | Change (Rattus norvegicus [4]): 6% | Efficacy ratio (Rattus norvegicus [3]; 316 mg/kg): 1.96 and 1.57

O=C(O)CCNc1ccccc1C(=O)c1ccccc1
Change (Rattus norvegicus [6]): -9% | Efficacy ratio (Rattus norvegicus [3]; 316 mg/kg): 1.35 and 1.46 | Change (Rattus norvegicus [5]): -41%
